Results taken from the NIST ThermoML archive (doi:10.1016/j.jct.2012.09.018).

Test: mn = molality of the nth substance listed, in mol/kg
Conditions: 101 kPa, Liquid, Pycnometric method

O=C([O-])C(F)(F)C(F)(F)C(F)(F)C(F)(F)C(F)(F)C(F)(F)C(F)(F)F.[Na+] [sodium perfluorooctanoate] + O
m1 = 0.04
Conditions | mass density [kg/m3]
293.15 K | 1007.53
298.15 K | 1006.24
303.15 K | 1004.73
308.15 K | 1003.15

CC(C)C[C@H](NC(=O)CN)C(=O)O [glycyl-L-leucine] + O
293.15 K
Conditions | mass density [kg/m3]
m1 = 0.01984 | 999.17
m1 = 0.02628 | 999.49
m1 = 0.03301 | 999.83
m1 = 0.03973 | 1000.15
m1 = 0.04936 | 1000.61
m1 = 0.05894 | 1001.06
m1 = 0.06889 | 1001.56
m1 = 0.07838 | 1002.04
m1 = 0.08821 | 1002.51

NCC(=O)NCC(=O)O [glycylglycine] + O
293.15 K
Conditions | mass density [kg/m3]
m1 = 0.02014 | 999.33
m1 = 0.04077 | 1000.49
m1 = 0.06148 | 1001.64
m1 = 0.09135 | 1003.33
m1 = 0.1226 | 1005.06
m1 = 0.1538 | 1006.84
m1 = 0.1823 | 1008.4
m1 = 0.2128 | 1010.11
m1 = 0.2534 | 1012.46

CC(C)[C@H](NC(=O)CN)C(=O)O [glycyl-L-valine] + O
293.15 K
Conditions | mass density [kg/m3]
m1 = 0.01993 | 999.24
m1 = 0.04051 | 1000.32
m1 = 0.06065 | 1001.37
m1 = 0.08097 | 1002.43
m1 = 0.1005 | 1003.46
m1 = 0.1203 | 1004.51
m1 = 0.1403 | 1005.53
m1 = 0.1594 | 1006.55
m1 = 0.1799 | 1007.62
m1 = 0.1995 | 1008.64
